{"source": "patent US20230357419A1", "about": "“METHODS FOR TREATING OR […] DISORDERS” (priority 2022, published 2023)", "key": {"C57BL/6J mice": {"tested_on": "C57BL/6J mice", "assay": "Repeated nitroglycerin (NTG) administration-induced behavioral sensitization: facial mechanical thresholds (von Frey), hyperalgesic priming, facial pain score", "format": "in vivo, mouse", "conditions": "female C57BL/6J", "protocol": "Repeated nitroglycerin (NTG) administration-induced behavioral sensitization: To model chronic migraine headache, mice received repetitive intraperitoneal (i.p.) injections of nitric oxide (NO) donor NTG (10 mg/kg and 10 ml/kg in saline with 1% propylene glycol) once every 2 days for 5 times as described previously. The control mice received vehicle (saline with 1% propylene glycol, 10 ml/kg) injections every 2 days. Facial mechanical thresholds were measured at baseline and two days after each injection (before the next treatment). After the facial mechanical threshold returned to the baseline level, mice received daily i.p. injections of low-dose NTG (0.1 mg/kg). Facial mechanical thresholds were measured every 2 days to assess hyperalgesic priming.\nThe hair on the mouse forehead (above and between the eyes) was shaved the day before testing. […] A positive response was determined by the following criteria as previously described: mouse vigorously stroked its face with the forepaw, head withdrawal from the stimulus, or head shaking. […]\nFacial pain score—aversiveness to facial mechanical stimuli: To measure the aversiveness to facial mechanical stimuli, the responses of mice to individual von Frey filaments were scored based on the most aversive behavior they display: 0) no responses; 1) detection: eye squinting, facial skin crinkling and/or a small head shaking; 2) withdrawal: head withdrawal from the filament and/or forepaw stroking of face once; 3) vigorous forepaw stroking of face 2 or more times; and 4) vigorous head shaking and/or attacking the filament.\nFor C57BL/6J mice, responses were measured to 0.04 gram (g), 0.07 g and 0.16 g von Frey filaments (3 applications each in ascending order). […]\nMice received intraperitoneal (i.p.) injections of NTG (10 mg/kg) or vehicle (saline with 1% propylene glycol, 10 ml/kg) once every 2 days for 5 times as described previously. Facial mechanical thresholds were measured at baseline and two days after each injection. […]"}, "mice": {"tested_on": "mice", "conditions": "intrathecal, 3 μg; cited from earlier work"}}}
{"smiles": "Cc1ccc2c(c1)C1(CCN(CCc3nc(-c4ccccc4)oc3C)CC1)OC(=O)N2", "note": "[RS504393]", "values": [{"measurement": "NTG-induced acute or persistent facial skin hypersensitivity", "setting": "C57BL/6J mice; 3 μg in 10 μl under periorbital skin, 30 minutes before and 24 hours post-NTG", "result": "did not reduce NTG-induced acute or persistent facial skin hypersensitivity"}, {"measurement": "facial mechanical threshold (NTG-induced persistent facial skin hypersensitivity)", "setting": "C57BL/6J mice; 3 mg/kg i.p., 8 daily injections started after established hypersensitivity, day 5-11", "result": "returned to basal level after 2 days of RS504393 treatment"}, {"measurement": "hyperalgesic priming (low-dose NTG-induced facial skin hypersensitivity)", "setting": "C57BL/6J mice; 3 mg/kg i.p., 8 daily injections, low-dose NTG day 20-28", "result": "low-dose NTG injections still produced robust facial skin hypersensitivity"}, {"measurement": "tibial fracture/cast immobilization-induced mechanical allodynia", "setting": "mice", "result": "significantly attenuated tibial fracture/cast immobilization-induced mechanical allodynia"}]}
